What was measured:
[1] = test system: endogenous cellular STAT1 (phosphorylated at Tyr701) in NCI-H1373 cells; test: Phospho-STAT1 (Tyr701) LANCE Ultra TR-FRET Detection Assay; type: cell-based; details: Homo sapiens, NCI-H1373, 48 h, phospho-STAT1 (Tyr701) induction, read-out: NH1373 pSTAT1 EC50
PARP7 = biological target: T1, PARP7 (Homo sapiens, UniProt Q7Z3E1); test: Probe Displacement Assay for PARP7 (MSD electrochemiluminescent, biotinylated probe RBNO11147); details: displacement of biotinylated probe RBNO11147 from PARP7 NAD+-binding site; read-out: MSD ProbeDisp PARP7 IC50
T1 sequence (Q7Z3E1 1-657): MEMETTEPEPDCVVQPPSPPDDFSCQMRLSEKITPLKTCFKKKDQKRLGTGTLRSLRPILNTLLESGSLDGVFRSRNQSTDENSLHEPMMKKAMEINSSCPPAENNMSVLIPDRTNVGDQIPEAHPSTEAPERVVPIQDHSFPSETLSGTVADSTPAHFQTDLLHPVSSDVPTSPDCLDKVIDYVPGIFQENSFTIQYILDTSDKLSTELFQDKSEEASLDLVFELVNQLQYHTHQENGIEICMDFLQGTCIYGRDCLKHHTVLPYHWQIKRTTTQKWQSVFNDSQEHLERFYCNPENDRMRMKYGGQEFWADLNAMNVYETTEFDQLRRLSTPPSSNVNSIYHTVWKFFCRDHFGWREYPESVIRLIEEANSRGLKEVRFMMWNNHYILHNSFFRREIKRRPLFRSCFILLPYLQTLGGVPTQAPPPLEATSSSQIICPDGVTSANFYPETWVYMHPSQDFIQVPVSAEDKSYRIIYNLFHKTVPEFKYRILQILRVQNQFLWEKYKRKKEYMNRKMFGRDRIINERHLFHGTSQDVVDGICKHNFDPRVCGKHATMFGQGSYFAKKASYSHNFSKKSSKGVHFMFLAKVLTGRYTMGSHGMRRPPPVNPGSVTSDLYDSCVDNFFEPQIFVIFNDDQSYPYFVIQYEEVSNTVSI

C[C@@H](CCCn1ccc2cc(-c3ncc(C#N)cn3)c(F)cc2c1=O)Nc1cn[nH]c(=O)c1C(F)(F)F [Example 24, (S)-2-(7-fluoro-1-oxo-2-(4-((6-oxo-5-(trifluoromethyl)-1,6-dihydropyridazin-4-yl)amino)pentyl)-1,2-dihydroisoquinolin-6-yl)pyrimidine-5-carbonitrile]
EC50 [1]: 220 nM | IC50 (PARP7): 0.9 nM

Nc1nc(-c2cc3ccn(CCC[C@H](COC(F)F)Nc4cn[nH]c(=O)c4C(F)(F)F)c(=O)c3cc2F)ncc1C(F)F [Example 376, (R)-6-(4-amino-5-(difluoromethyl)pyrimidin-2-yl)-2-(5-(difluoromethoxy)-4-((6-oxo-5-(trifluoromethyl)-1,6-dihydropyridazin-4-yl)amino)pentyl)-7-fluoroisoquinolin-1(2H)-one]
EC50 [1]: 3.03 nM | IC50 (PARP7): 0.339 nM

C[C@@H](CCCn1ccc2cc(-c3ccc(S(C)(=N)=O)cn3)cc(F)c2c1=O)Nc1cn[nH]c(=O)c1C(F)(F)F (stereo partly drawn) [Example 40, 8-fluoro-6-[5-(methylsulfonimidoyl)-2-pyridyl]-2-[(4S)-4-[[6-oxo-5-(trifluoromethyl)-1H-pyridazin-4-yl]amino]pentyl]isoquinolin-1-one]
EC50 [1]: 10000 nM | IC50 (PARP7): 2.7 nM

C[C@@H](CCCn1ccc2cc(-c3ncc(C(F)(F)F)c(N4C[C@@H](O)[C@@H]4C)n3)c(F)cc2c1=O)Nc1cn[nH]c(=O)c1C(F)(F)F [Example 311, 7-fluoro-6-(4-((2S,3R)-3-hydroxy-2-methylazetidin-1-yl)-5-(trifluoromethyl)pyrimidin-2-yl)-2-((S)-4-((6-oxo-5-(trifluoromethyl)-1,6-dihydropyridazin-4-yl)amino)pentyl)isoquinolin-1(2H)-one]
EC50 [1]: 14 nM | IC50 (PARP7): 0.258 nM

C[C@@H](CCCn1ccc2cc(-c3ccccn3)c(F)cc2c1=O)Nc1cn[nH]c(=O)c1C(F)(F)F [Example 31, 7-fluoro-2-[(4S)-4-[[6-oxo-5-(trifluoromethyl)-1H-pyridazin-4-yl]amino]pentyl]-6-(2-pyridyl)isoquinolin-1-one]
EC50 [1]: 2180 nM | IC50 (PARP7): 0.2 nM

C[C@@H](CCCn1ccc2cc(-c3cc4ccccn4n3)c(F)cc2c1=O)Nc1cn[nH]c(=O)c1C(F)(F)F [Example 304, (S)-7-fluoro-2-(4-((6-oxo-5-(trifluoromethyl)-1,6-dihydropyridazin-4-yl)amino)pentyl)-6-(pyrazolo[1,5-a]pyridin-2-yl)isoquinolin-1(2H)-one]
EC50 [1]: 25.6 nM | IC50 (PARP7): 0.199 nM

Cc1cn(CCC[C@H](C)Nc2cn[nH]c(=O)c2C(F)(F)F)c(=O)c2ccc(-c3ncc(C(F)(F)F)cn3)cc12 [Example 46, 4-methyl-2-[(4S)-4-[[6-oxo-5-(trifluoromethyl)-1H-pyridazin-4-yl]amino]pentyl]-6-[5-(trifluoromethyl)pyrimidin-2-yl]isoquinolin-1-one]
EC50 [1]: 432 nM | IC50 (PARP7): 0.824 nM

C[C@@H](CCCn1ccc2cc(-c3ccc(F)cn3)c(F)cc2c1=O)Nc1cn[nH]c(=O)c1C(F)(F)F [Example 35, 7-fluoro-6-(5-fluoro-2-pyridyl)-2-[(4S)-4-[[6-oxo-5-(trifluoromethyl)-1H-pyridazin-4-yl]amino]pentyl]isoquinolin-1-one]
EC50 [1]: 436 nM | IC50 (PARP7): 0.5 nM

C[C@@H](CCCn1ncc2cc(-c3ncc(C(F)(F)F)cn3)ccc2c1=O)Nc1cn[nH]c(=O)c1C(F)(F)F [Example 4, 2-[(4S)-4-[[6-oxo-5-(trifluoromethyl)-1H-pyridazin-4-yl]amino]pentyl]-6 [5-(trifluoromethyl)pyrimidin-2-yl]phthalazin-1-one]
EC50 [1]: 95.6 nM | IC50 (PARP7): 0.2 nM

O=c1[nH]ncc(N2C[C@H]3C[C@H]3[C@H]2CCCn2ccc3cc(-c4ccc(C(F)(F)F)cn4)cc(F)c3c2=O)c1C(F)(F)F [Example 48, 8-fluoro-2-[3-[(1R,2R,5S)-3-[6-oxo-5-(trifluoromethyl)-1H-pyridazin-4-yl]-3-azabicyclo[3.1.0]hexan-2-yl]propyl]-6-[5-(trifluoromethyl)-2-pyridyl]isoquinolin-1-one]
EC50 [1]: 338 nM | IC50 (PARP7): 0.897 nM

C[C@@H](CCCn1ccc2cc(-c3cnc(C#N)cn3)c(F)cc2c1=O)Nc1cn[nH]c(=O)c1C(F)(F)F [Example 23, (S)-5-(7-fluoro-1-oxo-2-(4-((6-oxo-5-(trifluoromethyl)-1,6-dihydropyridazin-4-yl)amino)pentyl)-1,2-dihydroisoquinolin-6-yl)pyrazine-2-carbonitrile]
EC50 [1]: 2300 nM | IC50 (PARP7): 0.4 nM

C[C@@H](CCCn1cnc2cc(-c3ncc(F)cn3)c(F)cc2c1=O)Nc1cn[nH]c(=O)c1C(F)(F)F [Example 60, 6-fluoro-7-(5-fluoropyrimidin-2-yl)-3-[(4S)-4-[[6-oxo-5-(trifluoromethyl)-1H-pyridazin-4-yl]amino]pentyl]quinazolin-4-one]
EC50 [1]: 772 nM | IC50 (PARP7): 0.897 nM

Nc1nc(-c2cc3ccn(CCC[C@H](COC(F)F)Nc4cn[nH]c(=O)c4C(F)(F)F)c(=O)c3cc2F)ncc1C(F)(F)F [Example 379, (R)-6-(4-amino-5-(trifluoromethyl)pyrimidin-2-yl)-2-(5-(difluoromethoxy)-4-((6-oxo-5-(trifluoromethyl)-1,6-dihydropyridazin-4-yl)amino)pentyl)-7-fluoroisoquinolin-1(2H)-one]
EC50 [1]: 2.43 nM | IC50 (PARP7): 0.14 nM

C[C@@H](CCCn1cnc2cc(-c3ncc(C(F)(F)F)cn3)c(F)cc2c1=O)Nc1cn[nH]c(=O)c1C(F)(F)F [Example 29, (S)-6-fluoro-3-(4-((6-oxo-5-(trifluoromethyl)-1,6-dihydropyridazin-4-yl)amino)pentyl)-7-(5-(trifluoromethyl)pyrimidin-2-yl)quinazolin-4(3H)-one]
EC50 [1]: 31.6 nM | IC50 (PARP7): 1.6 nM

Cc1cnc(-c2cc3ncn(CCC[C@H](C)Nc4cn[nH]c(=O)c4C(F)(F)F)c(=O)c3cc2F)nc1N [Example 78, (S)-7-(4-amino-5-methylpyrimidin-2-yl)-6-fluoro-3-(4-((6-oxo-5-(trifluoromethyl)-1,6-dihydropyridazin-4-yl)amino)pentyl)quinazolin-4(3H)-one]
EC50 [1]: 317 nM

C[C@@H](CCCn1ccc2cc(-c3nc(N)c4c(n3)C(C)(C)OC4)c(F)cc2c1=O)Nc1cn[nH]c(=O)c1C(F)(F)F [Example 358, (S)-6-(4-amino-7,7-dimethyl-5,7-dihydrofuro[3,4-d]pyrimidin-2-yl)-7-fluoro-2-(4-((6-oxo-5-(trifluoromethyl)-1,6-dihydropyridazin-4-yl)amino)pentyl)isoquinolin-1(2H)-one]
EC50 [1]: 1330 nM

CC[C@@H](CCCn1ccc2cc(-c3ncc(C(F)F)c(N)n3)c(F)c(F)c2c1=O)Nc1cn[nH]c(=O)c1C(F)(F)F [Example 356, (S)-6-(4-amino-5-(difluoromethyl)pyrimidin-2-yl)-7,8-difluoro-2-(4-((6-oxo-5-(trifluoromethyl)-1,6-dihydropyridazin-4-yl)amino)hexyl)isoquinolin-1(2H)-one]
EC50 [1]: 4.9 nM

O=c1[nH]ncc(N2CCC2CCCn2ccc3cc(-c4ncc(C(F)(F)F)cn4)c(F)cc3c2=O)c1C(F)(F)F (stereo not drawn) [Example 72, 7-fluoro-2-[3-[1-[6-oxo-5-(trifluoromethyl)-1H-pyridazin-4-yl]azetidin-2-yl]propyl]-6-[5-(trifluoromethyl)pyrimidin-2-yl]isoquinolin-1-one]
EC50 [1]: 5.85 nM

Nc1nc(-c2cc3ccn(C[C@@H]4CC[C@H](Nc5cn[nH]c(=O)c5C(F)(F)F)C4)c(=O)c3cc2F)ncc1C(F)(F)F [Example 444, 6-(4-amino-5-(trifluoromethyl)pyrimidin-2-yl)-7-fluoro-2-(((1R,3S)-3-((6-oxo-5-(trifluoromethyl)-1,6-dihydropyridazin-4-yl)amino)cyclopentyl)methyl)isoquinolin-1(2H)-one]
EC50 [1]: 25.1 nM

C[C@@H]1C[C@@H](CCCn2ccc3cc(-c4ncc(C(F)(F)F)cn4)c(F)cc3c2=O)N(c2cn[nH]c(=O)c2C(F)(F)F)C1 [Example 174, 7-fluoro-2-(3-((2R,4R)-4-methyl-1-(6-oxo-5-(trifluoromethyl)-1,6-dihydropyridazin-4-yl)pyrrolidin-2-yl)propyl)-6-(5-(trifluoromethyl)pyrimidin-2-yl)isoquinolin-1(2H)-one]
EC50 [1]: 287 nM

C[C@@H](CCCn1ccc2cc(-c3ncc(N4CC5(COC5)C4)cn3)c(F)cc2c1=O)Nc1cn[nH]c(=O)c1C(F)(F)F [Example 99, (S)-6-(5-(2-oxa-6-azaspiro[3.3]heptan-6-yl)pyrimidin-2-yl)-7-fluoro-2-(4-((6-oxo-5-(trifluoromethyl)-1,6-dihydropyridazin-4-yl)amino)pentyl)isoquinolin-1(2H)-one]
EC50 [1]: 1280 nM

COc1cnc(-c2cc3ccn(CCC[C@H](C)Nc4cn[nH]c(=O)c4C(F)(F)F)c(=O)c3cc2F)nc1N1CC(F)(F)C1 [Example 210]
EC50 [1]: 132 nM

Source: US12459922B2 (Gilead Sciences, Inc., priority 2022, dated 2025)
